Test results reported in US11628144B2, “Iniparib formulations and uses thereof” (TriAct Therapeutics, Inc., priority 2017, dated 2023).
≈ marks a conversion by molar mass, not a printed value.

Experiments:
[1] = Solubility of iniparib in purified water; format: physicochemical
[2] = biological target: poly [ADP-ribose] polymerase 1 (PARP1) (Homo sapiens, UniProt P09874); settings: observed in several studies; cited from earlier work
[3] = system: cancer cells, including drug resistant cell lines; settings: cited from earlier work
[4] = tissues including brain and cerebrospinal fluid (CSF); cited from earlier work

Chain of poly [ADP-ribose] polymerase 1 (PARP1) (P09874 whole entry, species assumed): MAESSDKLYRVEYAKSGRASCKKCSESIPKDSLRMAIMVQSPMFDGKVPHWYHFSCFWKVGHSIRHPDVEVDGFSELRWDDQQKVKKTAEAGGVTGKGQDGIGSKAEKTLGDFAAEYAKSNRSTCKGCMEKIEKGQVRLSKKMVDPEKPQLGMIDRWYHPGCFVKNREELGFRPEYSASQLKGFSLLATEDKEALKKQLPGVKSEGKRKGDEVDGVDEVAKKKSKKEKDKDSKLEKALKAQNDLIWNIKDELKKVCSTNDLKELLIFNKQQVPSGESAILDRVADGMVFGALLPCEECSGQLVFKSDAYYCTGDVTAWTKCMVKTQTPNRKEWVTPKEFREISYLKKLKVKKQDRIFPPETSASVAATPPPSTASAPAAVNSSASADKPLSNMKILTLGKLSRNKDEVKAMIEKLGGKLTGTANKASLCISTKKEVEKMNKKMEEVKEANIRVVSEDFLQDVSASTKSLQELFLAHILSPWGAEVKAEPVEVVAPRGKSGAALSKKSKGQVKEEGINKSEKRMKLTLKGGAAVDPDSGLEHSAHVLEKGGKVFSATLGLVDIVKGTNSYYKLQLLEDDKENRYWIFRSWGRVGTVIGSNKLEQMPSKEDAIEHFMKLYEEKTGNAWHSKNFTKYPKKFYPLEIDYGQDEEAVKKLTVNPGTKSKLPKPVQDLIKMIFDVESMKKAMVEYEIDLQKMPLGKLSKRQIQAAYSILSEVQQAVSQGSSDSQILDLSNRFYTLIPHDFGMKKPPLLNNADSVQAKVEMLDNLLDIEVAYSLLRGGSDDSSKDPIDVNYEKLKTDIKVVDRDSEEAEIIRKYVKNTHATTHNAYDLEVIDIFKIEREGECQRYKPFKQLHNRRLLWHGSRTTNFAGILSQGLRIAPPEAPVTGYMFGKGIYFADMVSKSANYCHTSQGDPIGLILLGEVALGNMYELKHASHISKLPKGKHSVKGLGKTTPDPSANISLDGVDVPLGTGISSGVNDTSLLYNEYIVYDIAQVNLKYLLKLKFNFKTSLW

solubility [1]: ~182 µg/mL (≈ 623 µM)
Compound: NC(=O)c1ccc(I)c([N+](=O)[O-])c1 [Iniparib, 4-iodo-3-nitrobenzamide]
potency against PARP1 [2]: low potency
activity against cancer cells in vitro [3]: active against a broad range of cancer cells in vitro
distribution into tissues [4]: distributes rapidly and widely into tissues, including the brain and cerebrospinal fluid (CSF)
